pEC50: −log10 of the molar value. Like-named read-outs stand apart in the source and are kept apart here. Where a SMILES comes first, the peptide text is derived from it. The star is where a group is joined. Cbz = O=C(OCc1ccccc1)*
Tested on: K328M-Wee1-Luc fusion protein in transiently transfected HeLa cells
Experiment: K328M-Wee1-Luc degradation
Type: cell-based

CC(C)C[C@@H](C=O)NC(=O)[C@H](CC(C)C)NC(=O)[C@H](CC(C)C)NC(=O)OCc1ccccc1 [MG132, Z-Leu-Leu-Leu-CHO] (Cbz-Leu-Leu-Leu-aldehyde)
hill slope of dose-response curve: > 2.5 | increase in luminescent levels (30 μM, vs DMSO): > 9 fold | pEC50 (optimized 1536-well protocol, n=5): 5.33 | pEC50 (read-out: EC50, different thawed vials from a single batch, n=4): 5.33 | pEC50 (read-out: EC50, non-cryopreserved cells, non-cryopreserved cell suspensions): 5.27
